target: T1, B2 bradykinin receptor (Homo sapiens) (UniProt P30411); test: Tested for percent inhibition of binding affinity against Bradykinin receptor B2 at 10 uM concentration
T1 sequence (whole entry): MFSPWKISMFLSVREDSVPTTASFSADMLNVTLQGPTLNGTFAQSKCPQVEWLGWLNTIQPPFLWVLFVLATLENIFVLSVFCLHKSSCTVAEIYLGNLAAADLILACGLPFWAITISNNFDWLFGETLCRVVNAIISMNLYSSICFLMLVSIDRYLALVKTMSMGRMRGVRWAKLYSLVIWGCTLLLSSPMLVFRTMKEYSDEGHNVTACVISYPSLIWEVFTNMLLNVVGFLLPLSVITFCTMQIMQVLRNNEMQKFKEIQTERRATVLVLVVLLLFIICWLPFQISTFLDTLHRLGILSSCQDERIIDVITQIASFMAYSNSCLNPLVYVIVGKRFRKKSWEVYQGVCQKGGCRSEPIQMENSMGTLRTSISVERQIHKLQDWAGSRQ

| SMILES | inhibition |
| --- | --- |
| O=C(Nc1ccc(CN/C(=N/C2CCCCC2)NC2CCCCC2)cc1)C1Cc2ccccc2CN1C(=O)CN/C(=N/C1CCCCC1)NC1CCCCC1 (stereo not drawn) | 12% |
| CCCC[P+](CCCC)(CCCC)Cc1ccc(NC(=O)C2Cc3ccccc3CN2C(=O)CCCc2ccccc2)cc1 (stereo not drawn) | > 50% |
| CCCC[PH](CCCC)(CCCC)Cc1ccc(NC(=O)C2Cc3ccccc3CN2C(=O)[C@@H](N)CCc2ccccc2)cc1 (single isomer, unassigned; diastereomer 1) | 26% |
| CCCC[P+](CCCC)(CCCC)Cc1ccc(NC(=O)C2Cc3ccccc3CN2C(=O)C(CCc2ccccc2)NC(=O)OC(C)(C)C)cc1 (stereo not drawn) | > 50% |
| CCCC[PH](CCCC)(CCCC)Cc1ccc(NC(=O)C2Cc3ccccc3CN2C(=O)[C@H](CCc2ccccc2)N/C(=N/C2CCCCC2)NC2CCCCC2)cc1 (single isomer, unassigned; diastereomer 2) | > 50% |
| CCCC[P+](CCCC)(CCCC)Cc1ccc(NC(=O)C2Cc3ccccc3CN2C(=O)CNC(=O)OC(C)(C)C)cc1 (stereo not drawn) | 18% |
| CCCC[PH](CCCC)(CCCC)Cc1ccc(NC(=O)C2Cc3ccccc3CN2C(=O)[C@H](CCc2ccccc2)N/C(=N/C2CCCCC2)NC2CCCCC2)cc1 (single isomer, unassigned; diastereomer 1) | > 50% |
| CCCC[PH](CCCC)(CCCC)Cc1ccc(NC(=O)C2Cc3ccccc3CN2C(=O)[C@@H](N)CCc2ccccc2)cc1 (single isomer, unassigned; diastereomer 2) | 26% |
| CCCC[PH](CCCC)(CCCC)Cc1ccc(NC(=O)C2Cc3ccccc3CN2C(=O)CN/C(=N/C2CCCCC2)NC2CCCCC2)cc1 (stereo not drawn) | 33% |
| CCCC[PH](CCCC)(CCCC)Cc1ccc(NC(=O)C2Cc3ccccc3CN2/C(=N/C2CCCCC2)NC2CCCCC2)cc1 (stereo not drawn) | 34% |
| CCCC[PH](CCCC)(CCCC)Cc1ccc(NC(=O)C2Cc3ccccc3CN2C(=O)CN)cc1 (stereo not drawn) | 36% |

target: T2, B2 bradykinin receptor (Homo sapiens, UniProt P30411); test: Tested for binding affinity against human IMR-90 Bradykinin receptor B2
T2 sequence (P30411 whole entry): T1 sequence (whole entry)

| SMILES | Ki |
| --- | --- |
| CCCC[P+](CCCC)(CCCC)Cc1ccc(NC(=O)C2Cc3ccccc3CN2C(=O)CCCc2ccccc2)cc1 (stereo not drawn) | 10 µM |
| CCCC[P+](CCCC)(CCCC)Cc1ccc(NC(=O)C2Cc3ccccc3CN2C(=O)C(CCc2ccccc2)NC(=O)OC(C)(C)C)cc1 (stereo not drawn) | 8 µM |

Reference: ChEMBL document CHEMBL1128132, “Ace inhibitors as a template for the design of bradykinin B2 receptor antagonists” (Bioorg Med Chem Lett, 1995)
